Source: article PMC9430380, “Oridonin Attenuates Burkholderia cenocepacia Virulence by Suppressing Quorum-Sensing Signaling” (Microbiology Spectrum, 2022)

Experiments:
CepR = biological target: T1, CepR (Burkholderia cenocepacia, UniProt B4EMD0); test: ITC with purified protein (one-site model); EMSA shows inhibited binding to bclACB promoter
T1 construct: HIS-CepR fusion protein (pDBHT2), cleaved with TEV protease

RqpR = biological target: T2, RqpR; test: ITC with purified protein (one-site model); EMSA shows inhibited binding to rpfFBC and cepI promoters; parameters: species or system Burkholderia cenocepacia
T2 construct: HIS-RqpR fusion protein (pDBHT2), cleaved with TEV protease

T1 sequence (B4EMD0 entry or part of it): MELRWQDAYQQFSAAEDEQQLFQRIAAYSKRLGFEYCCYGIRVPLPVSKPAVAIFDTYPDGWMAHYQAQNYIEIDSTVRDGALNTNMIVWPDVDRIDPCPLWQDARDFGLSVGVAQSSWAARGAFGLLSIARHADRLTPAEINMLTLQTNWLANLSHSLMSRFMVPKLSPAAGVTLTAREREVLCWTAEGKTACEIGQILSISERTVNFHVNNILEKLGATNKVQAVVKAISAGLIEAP

For `C=C1C(=O)[C@]23[C@H](O)[C@H]1CC[C@H]2[C@@]12CO[C@]3(O)[C@@H](O)[C@@H]1C(C)(C)CC[C@@H]2O` [oridonin], the Kd (CepR) was 13.6 ± 0.826 µM and the Kd (RqpR) was 8.28 ± 0.895 µM.
